We go through eight compounds from paper PMC8963254, “Effects of Lysine N-ζ-Methylation in Ultrashort Tetrabasic Lipopeptides (UTBLPs) on the Potentiation of Rifampicin, Novobiocin, and Niclosamide in Gram-Negative Bacteria” (Antibiotics, 2022).

Values after ≈ are worked out from the molar mass of the structure shown. A value given as a limit tells only on which side of the number the result lay.

What all share (test): microbe, parasite or virus in culture
The subject of experiment [1] is P. aeruginosa PA259-96196. The format is cell-based, Pseudomonas aeruginosa. The settings on record: P. aeruginosa 259-96196; for MIC: Pseudomonas aeruginosa, PA25996196, 18 h, read-out: MICs of various antibiotics. On the procedure: (§1) The in vitro antibacterial activity of the UTBLPs was assessed against wild-type and clinically isolated bacterial strains. To obtain the MIC of the compounds, the microbroth dilution susceptibility assay was performed according to the Clinical and Laboratory Standards Institute (CLSI, Wayne, PA, USA) guidelines and as previously described. Briefly, the compounds at varying concentrations were incubated with bacterial inoculum (5 × 10^5 CFU/mL final concentration) at 37 °C for 18 h. Growth in the form of turbidity was confirmed using an EMax Plus microplate reader (Molecular Devices, San Jose, CA, USA) at 590 nm.

The subject of experiment [2] is P. aeruginosa PA262-101856. The format is cell-based, Pseudomonas aeruginosa. To be noted: P. aeruginosa 262-101856; for MIC: Pseudomonas aeruginosa, PA262101856, 18 h, read-out: MICs of various antibiotics. Here is the method: as §1
In a further experiment the test system is A. baumannii AB027. It is filed as cell-based, Acinetobacter baumannii. The settings on record: A. baumannii AB027; for MIC: Acinetobacter baumannii, 18 h, read-out: MICs of various antibiotics. On the procedure: as §1
The test system of the next experiment is A. baumannii AB92247. The format is cell-based, Acinetobacter baumannii. To be noted: A. baumannii 92247; for MIC: Acinetobacter baumannii, AB92247, 18 h, read-out: MICs of various antibiotics. Here is the method: as §1
In a further experiment the test system is E. coli 94393. It is filed as cell-based, Escherichia coli. To be noted: E. coli 94393 (mcr-1 +); for MIC: Escherichia coli, 18 h, read-out: MICs of various antibiotics. Here is the method:
as §1

The test system of the next experiment is E. coli 94474. The format is cell-based, Escherichia coli. The settings on record: E. coli 94474 (mcr-1 +); for MIC: Escherichia coli, 18 h, read-out: MICs of various antibiotics. Here is the method: as §1
The next experiment deals with K. pneumoniae 113250. The format is cell-based, Klebsiella pneumoniae. To be noted: K. pneumoniae 113250; for MIC: Klebsiella pneumoniae, 18 h, read-out: MICs of various antibiotics. On the procedure:
as §1

Another experiment deals with E. cloacae 118564. It is filed as cell-based, Enterobacter cloacae. To be noted: E. cloacae 118564; for MIC: Enterobacter cloacae, 18 h, read-out: MICs of various antibiotics. On the procedure: as §1

Regarding `CN(C)c1ccc(O)c2c1C[C@H]1C[C@H]3[C@H](N(C)C)C(O)=C(C(N)=O)C(=O)[C@@]3(O)C(O)=C1C2=O` [MIN, minocycline], the MIC in experiment [1] turned out to be 32 µg/mL (≈ 69.9 µM); in experiment [2] it was 64 µg/mL (≈ 140 µM); in the experiment on A. baumannii AB027 it was 0.25 µg/mL (≈ 0.546 µM); in the experiment on A. baumannii AB92247 it was 0.125 µg/mL (≈ 0.273 µM); in the experiment with E. coli 94393, 2 µg/mL (≈ 4.37 µM); in the experiment with E. coli 94474 it was 64 µg/mL (≈ 140 µM). Moreover, in the experiment on K. pneumoniae 113250, the MIC is 2 µg/mL (≈ 4.37 µM).
As to `C[C@@H](O)[C@H]1C(=O)N2C(C(=O)O)=C(S[C@@H]3CN[C@H](C(=O)N(C)C)C3)[C@H](C)[C@H]12` [MER, meropenem], the MIC in experiment [1] is 1020 µg/mL (≈ 2670 µM); in experiment [2] it was 32 µg/mL (≈ 83.4 µM); in the experiment on A. baumannii AB027, 16 µg/mL (≈ 41.7 µM); with A. baumannii AB92247, 4 µg/mL (≈ 10.4 µM); with E. coli 94393 it was at most 0.03 µg/mL; in the experiment with E. coli 94474 it was at most 0.03 µg/mL. The MIC in the experiment with E. cloacae 118564 is 0.12 µg/mL (≈ 0.313 µM); in the experiment with K. pneumoniae 113250, at most 0.03 µg/mL.
Take `NCC[C@H](O)C(=O)N[C@@H]1C[C@H](N)[C@@H](O[C@H]2O[C@H](CN)[C@@H](O)[C@H](O)[C@H]2O)[C@H](O)[C@H]1O[C@H]1O[C@H](CO)[C@@H](O)[C@H](N)[C@H]1O` [AMK, amikacin]: the MIC in experiment [1] is above 64 µg/mL; in experiment [2] it was above 64 µg/mL; in the experiment with A. baumannii AB027 it was above 64 µg/mL; in the experiment with A. baumannii AB92247, below 1 µg/mL; in the experiment on E. coli 94393, 2 µg/mL (≈ 3.42 µM); with E. coli 94474, 2 µg/mL (≈ 3.42 µM). The values for the MIC in the experiment on E. cloacae 118564 and in the experiment with K. pneumoniae 113250 were 2 µg/mL (≈ 3.42 µM) and at most 1 µg/mL, respectively.
Take `CN(C)c1cc(NC(=O)CNC(C)(C)C)c(O)c2c1C[C@H]1C[C@H]3[C@H](N(C)C)C(O)=C(C(N)=O)C(=O)[C@@]3(O)C(O)=C1C2=O` [TGC, tigecycline]: the MIC in experiment [1] worked out at 32 µg/mL (≈ 54.6 µM); in experiment [2] it was 32 µg/mL (≈ 54.6 µM); in the experiment with A. baumannii AB027, 4 µg/mL (≈ 6.83 µM); with A. baumannii AB92247, 0.25 µg/mL (≈ 0.427 µM); in the experiment on E. coli 94393, 0.25 µg/mL (≈ 0.427 µM); in the experiment with E. coli 94474, 1 µg/mL (≈ 1.71 µM).
With `CO[C@@]1(NC(=O)Cc2cccs2)C(=O)N2C(C(=O)O)=C(COC(N)=O)CS[C@@H]21` [FOX, cefoxitin], the MIC was above 32 µg/mL in experiment [1]; above 32 µg/mL in experiment [2]; 32 µg/mL (≈ 74.9 µM) in the experiment on A. baumannii AB92247; 4 µg/mL (≈ 9.36 µM) in the experiment with E. coli 94393; 16 µg/mL (≈ 37.4 µM) in the experiment on E. coli 94474; above 32 µg/mL in the experiment on E. cloacae 118564. In addition, the MIC with K. pneumoniae 113250 turned out to be 1 µg/mL (≈ 2.34 µM).
For colistin [CST], the “MICs of various antibiotics” value in experiment [1] worked out at 1 µg/mL; in experiment [2], 1 µg/mL; against A. baumannii AB027, 0.25 µg/mL; against A. baumannii AB92247, 4 µg/mL; against E. coli 94393 it was 4 µg/mL; in the experiment with E. coli 94474, 16 µg/mL. Further, the “MICs of various antibiotics” value with E. cloacae 118564 and against K. pneumoniae 113250 was above 16 µg/mL throughout.
Regarding `Cc1nnc(SCC2=C(C(=O)O)N3C(=O)[C@@H](NC(=O)Cn4cnnn4)[C@H]3SC2)s1` [CFZ, cefazolin], the MIC in experiment [1] is above 128 µg/mL; in experiment [2], above 128 µg/mL; in the experiment on A. baumannii AB027 it was above 128 µg/mL; in the experiment with A. baumannii AB92247, 128 µg/mL (≈ 282 µM); in the experiment with E. coli 94393 it was 1 µg/mL (≈ 2.2 µM); in the experiment with E. coli 94474, 4 µg/mL (≈ 8.8 µM). Besides, the figures for the MIC in the experiment with E. cloacae 118564 and in the experiment with K. pneumoniae 113250 were above 128 µg/mL and 1 µg/mL (≈ 2.2 µM), respectively.
On to `CO/N=C(\C(=O)N[C@@H]1C(=O)N2C(C(=O)[O-])=C(C[N+]3(C)CCCC3)CS[C@H]12)c1csc(N)n1` [CPM, cefepime], for which the MIC in experiment [1] is above 64 µg/mL; in experiment [2], 32 µg/mL (≈ 66.6 µM); with A. baumannii AB027, above 128 µg/mL; in the experiment with A. baumannii AB92247 it was 4 µg/mL (≈ 8.32 µM); in the experiment with E. coli 94393 it was at most 0.25 µg/mL; with E. coli 94474 it was at most 0.25 µg/mL. Besides, the figures for the MIC in the experiment with E. cloacae 118564 and in the experiment on K. pneumoniae 113250 were 0.25 µg/mL (≈ 0.52 µM) and 1 µg/mL (≈ 2.08 µM), respectively.
